In US10570179B2, “Substituted urea depsipeptide analogs as activators of the CLPP endopeptidase” (priority 2016, dated 2020):
Numbered stars: 1 amine (or outer) side, 2 acyl side, 3 side chain; on linkers, the order of the positions; unused ones are H or OH. Bridge positions count the residues as written; N and C are the ends. Square brackets hold non-standard residues; d marks the D form. Peptide text beside a SMILES is read from it. * marks the point of attachment. Piperazine(2S-CO,4-Me) = CN1CCN[C@H](C(=O)O)C1; Phe(3,5-F2) = N[C@@H](Cc1cc(F)cc(F)c1)C(=O)O; NH(1-Me-indolin-5-yl) = CN1CCc2cc(N*)ccc21; X6 = O=C([C@@H]1CS(=O)(=O)CCN1[*:1])[*:2]; Phe(3-OMe) = COc1cccc(C[C@H](N)C(=O)O)c1; Morpholine(3S-CO) = O=C(O)[C@@H]1COCCN1; Phe(3-Me) = Cc1cccc(C[C@H](N)C(=O)O)c1; NH(4-Cl-2-F-phenyl) = Fc1cc(Cl)ccc1N*; Pro(4R-Me) = C[C@H]1CN[C@H](C(=O)O)C1; X1 = O=C([C@@H]1CSCCN1[*:1])[*:2]; Hyp = O=C(O)[C@@H]1C[C@@H](O)CN1; NH(4-Et-phenyl) = CCc1ccc(N*)cc1; NH(4-Me-phenyl) = Cc1ccc(N*)cc1; aThr = C[C@H](O)[C@H](N)C(=O)O; CO = O=C([*:1])[*:2]; X2 = Fc1cc(N*)ccc1Cl

How the values were obtained:
[1] = Microsomal metabolic stability; format: in vitro ADME, human
[2] = Plasma protein binding, rapid equilibrium dialysis; format: in vitro ADME, human; conditions: 10 μM
Procedure, shortened: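 Compound spiked at 10 μM (0.1% DMSO) into human plasma, dialysed against DPBS pH 7.4 across 8 K MWCO RED membrane for 4 h at 37 °C with shaking. Both chambers quantified by LC-MS against warfarin internal standard; % free = buffer/plasma concentration ×100, % bound = 100 − % free.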

Plasma stability assay = format: in vitro ADME, mouse
Procedure, shortened: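 Compounds at 10 μM final in human or mouse plasma, incubated at 37 °C and sampled at 0, 3, 24 and 48 h in triplicate. Reactions quenched with cold acetonitrile containing warfarin internal standard; parent measured by LC-MS. Half-life from least-squares first-order fit.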

[3] = microsomal metabolic stability half-life, human liver microsomes
[4] = plasma binding, % Bound, human plasma
[5] = plasma stability half-life, mouse plasma, 37° C.

With `Cc1cccc(C[C@H](NC(=O)Nc2ccc(Cl)cc2F)C(=O)N[C@@H]2C(=O)N3CCC[C@H]3C(=O)N3CCS(=O)(=O)C[C@H]3C(=O)N[C@@H](C)C(=O)N3C[C@H](C)C[C@H]3C(=O)O[C@H]2C)c1` [Compound 40, (S)-2-(3-(4-CHLORO-2-FLUOROPHENYL)UREIDO)-3-(M-TOLYL)-N-((6AS,12S,13S,15AS,17R,21S,23AR)-13,17,21-TRIMETHYL-2,2-DIOXIDO-6,11,15,20,23-PENTAOXOOCTADECAHYDRO-6H,11H,15H-DIPYRROLO[2,1-C:2′,1′-L][1,4]THIAZINO[3,4-I][1]OXA[4,7,10,13]TETRAAZACYCLOHEXADECIN-12-YL)PROPANAMIDE] ({NH(4-Cl-2-F-phenyl)-CO}-[Phe(3-Me)][aThr]P[X6]A[Pro(4R-Me)]; ester 2-C) the “Human” value ([1]; human, pH 7.4) was 0.62 ± .623 h, the Human ([2]; human, 4 h, pH 7.4) was 98.5 ± 8.5% and the “Mouse” value (Plasma stability assay; mouse, 10 μM) was greater than 50 h.

In the case of `Cc1cccc(C[C@H](NC(=O)Nc2ccc(Cl)c(F)c2)C(=O)N[C@H]2COC(=O)[C@@H]3C[C@@H](C)CN3C(=O)[C@H](C)NC(=O)[C@@H]3CN(C)CCN3C(=O)[C@@H]3CCCN3C2=O)c1` [Compound 14, (S)-2-(3-(4-CHLORO-3-FLUOROPHENYL)UREIDO)-3-(M-TOLYL)-N-((6AS,12S,15AS,17R,21S,23AS)-2,17,21-TRIMETHYL-6,11,15,20,23-PENTAOXOOCTADECAHYDRO-2H,6H,11H,15H-PYRAZINO[2,1-I]DIPYRROLO[2,1-C:2′,1′-L][1]OXA[4,7,10,13]TETRAAZACYCLOHEXADECIN-12-YL)PROPANAMIDE] ({X2-CO}-[Phe(3-Me)]SP[Piperazine(2S-CO,4-Me)]A[Pro(4R-Me)]; ester 2-C), the “Human” value ([1]; human, pH 7.4) is reported as 0.73 ± 0.07 h, the Human ([2]; human, 4 h, pH 7.4) is reported as 99.1 ± 0.2% and the “Mouse” value (Plasma stability assay; mouse, 10 μM) is reported as 9.55 ± 0.8 h.

For `CCc1ccc(NC(=O)N[C@@H](Cc2cccc(C)c2)C(=O)N[C@H]2COC(=O)[C@@H]3C[C@@H](C)CN3C(=O)[C@H](C)NC(=O)[C@@H]3CN(C)CCN3C(=O)[C@@H]3CCCN3C2=O)cc1` [Compound 16, (S)-2-(3-(4-ETHYLPHENYL)UREIDO)-3-(M-TOLYL)-N-((6AS,12S,15AS,17R,21S,23AS)-2,17,21-TRIMETHYL-6,11,15,20,23-PENTAOXOOCTADECAHYDRO-2H,6H,11H,15H-PYRAZINO[2,1-I]DIPYRROLO[2,1-C:2′,1′-L][1]OXA[4,7,10,13]TETRAAZACYCLOHEXADECIN-12-YL)PROPANAMIDE] ({NH(4-Et-phenyl)-CO}-[Phe(3-Me)]SP[Piperazine(2S-CO,4-Me)]A[Pro(4R-Me)]; ester 2-C), the “Human” value ([1]; human, pH 7.4) was 0.86 ± 0.07 h, the Human ([2]; human, 4 h, pH 7.4) was 98.5 ± 0.3% and the “Mouse” value (Plasma stability assay; mouse, 10 μM) was 6.86 ± 0.7 h.

For `COc1cccc(C[C@H](NC(=O)Nc2ccc(Cl)cc2F)C(=O)N[C@H]2COC(=O)[C@@H]3C[C@@H](C)CN3C(=O)[C@H](C)NC(=O)[C@@H]3CN(C)CCN3C(=O)[C@@H]3CCCN3C2=O)c1` [Compound 19, (S)-2-(3-(4-CHLORO-2-FLUOROPHENYL)UREIDO)-3-(3-METHOXYPHENYL)-N-((6AS,12S,15AS,17R,21S,23AS)-2,17,21-TRIMETHYL-6,11,15,20,23-PENTAOXOOCTADECAHYDRO-2H,6H,11H,15H-PYRAZINO[2,1-I]DIPYRROLO[2,1-C:2′,1′-L][1]OXA[4,7,10,13]TETRAAZACYCLOHEXADECIN-12-YL)PROPANAMIDE] ({NH(4-Cl-2-F-phenyl)-CO}-[Phe(3-OMe)]SP[Piperazine(2S-CO,4-Me)]A[Pro(4R-Me)]; ester 2-C), the “Human” value ([1]; human, pH 7.4) was 0.61 ± 0.06 h, the Human ([2]; human, 4 h, pH 7.4) was 98.9 ± 0.2% and the “Mouse” value (Plasma stability assay; mouse, 10 μM) was 12.82 h.

In the case of `C[C@@H]1C[C@H]2C(=O)O[C@@H](C)[C@H](NC(=O)[C@H](Cc3cc(F)cc(F)c3)NC(=O)Nc3ccc4c(c3)CCN4C)C(=O)N3CCC[C@H]3C(=O)N3CCOC[C@H]3C(=O)N[C@@H](C)C(=O)N2C1` [Compound 32] ({NH(1-Me-indolin-5-yl)-CO}-[Phe(3,5-F2)][aThr]P[Morpholine(3S-CO)]A[Pro(4R-Me)]; ester 2-C), the “Human” value [1, 3] is reported as 2.66 ± .66 h, the Human [2, 4] is reported as 83.0 ± 3.0% and the “Mouse (hr)” value (Plasma stability assay; [5]) is reported as >>48 hr.

For `Cc1ccc(NC(=O)N[C@@H](Cc2cccc(C)c2)C(=O)N[C@@H]2C(=O)N3C[C@H](O)C[C@H]3C(=O)N3CCSC[C@H]3C(=O)N[C@@H](C)C(=O)N3C[C@H](C)C[C@H]3C(=O)O[C@H]2C)cc1` [Compound 42, (S)—N-((6AS,8R,12S,13S,15AS,17R,21S,23AR)-8-HYDROXY-13,17,21-TRIMETHYL-6,11,15,20,23-PENTAOXOOCTADECAHYDRO-6H,11H,15H-DIPYRROLO[2,1-C:2′,1′-L][1,4]THIAZINO[3,4-I][1]OXA[4,7,10,13]TETRAAZACYCLOHEXADECIN-12-YL)-3-(M-TOLYL)-2-(3-(P-TOLYL)UREIDO)PROPANAMIDE] ({NH(4-Me-phenyl)-CO}-[Phe(3-Me)][aThr][Hyp][X1]A[Pro(4R-Me)]; ester 2-C), the “Human” value [1, 3] was 0.81 ± .813 h, the Human [2, 4] was 98.1 ± 8.1% and the “Mouse” value (Plasma stability assay; [5]) was greater than 50 h.
